Measurements as given in BindingDB's records for doi:10.1021/jm960459x (University of Minnesota, 1996).

Test: Compound was tested for the binding affinity and selectivity by competitive inhibition of radioligands on opioid delta receptor in guinea pig brain membranes

| SMILES | Ki [nM] |
| --- | --- |
| CN(C(=O)Cc1ccc(Cl)c(Cl)c1)[C@H](CN1CCCC1)c1cccc(NC(=O)[C@H](N)CC(=O)O)c1 [(R)-3-Amino-N-[3-((S)-1-{[2-(3,4-dichloro-phenyl)-acetyl]-methyl-amino}-2-pyrrolidin-1-yl-ethyl)-phenyl]-succinamic acid] | 573 |
| CN(C(=O)Cc1ccc(Cl)c(Cl)c1)[C@H](CN1CCCC1)c1cccc(NC(=O)[C@@H](N)CC(=O)O)c1 [(S)-3-Amino-N-[3-((S)-1-{[2-(3,4-dichloro-phenyl)-acetyl]-methyl-amino}-2-pyrrolidin-1-yl-ethyl)-phenyl]-succinamic acid] | 1070 |
